Experimental data taken from patent publication US12018252B2, “Methods and compositions for identifying neoantigens for use in treating cancer” (Arizona Board of Regents on Behalf of Arizona State …, priority 2019, dated 2024).

How the values were obtained:
4T1 cells = experiment: BALB/C-4T1 mouse breast tumor model: immunization then tumor challenge; assay type: in vivo; conditions: 4T1-BALB/c
Description: BALB/c and C57BL/6 mice were from Charles River Laboratories or Jackson Laboratories. […] Tumor volumes were measured and calculated by (Length^2×Width/2) daily after the size was larger than 1 mm^3. Breeding pairs of BALB-neuT and FVB-neuN (FVB/N-Tg (MMTVneu) 202Mul) mice were obtained from Joseph Lustgarten, Mayo Clinic Arizona. Mice were monitored weekly for the tumor incidence after tumor size reached 1 mm^3. All experiments were performed in accordance with protocols approved by the Institutional Animal Care and Use Committee of Arizona State University.
The DNA fragments encoding FS peptides were cloned as a C-terminal fusion into the genetic immunization vectors pCMVi-UB (26) and pCMVi-LSrCOMPTT (27, 28) with the Bgl II and Hind III and mixed with 1:1 ratio as the vaccine antigen. Three adjuvants were encoded by genetic immunization vectors. The pCMVi-mGM-CSF vector expresses the adjuvant mouse granulocyte/macrophage colony-stimulating factor (mGM-CSF) under control of the human cytomegalovirus (CMV) promoter (27). […]. Vectors pCMVi-UB, pCMVi-LSrCOMPTT, pCMVi-LTA (also called pCMVi-LS-LTA-R192G) and pCMVi-LTB are available from the PSI:Biology-Materials Repository DNASU (dnasu.org) at Arizona State University. Additional adjuvants were the class A CpG 2216 single-stranded oligodeoxynucleotide obtained from Sigma and alum from Pierce.
Bullets for biolistic genetic immunization used the gold micronanoplex approach and were prepared as described (30) with the following changes. Two grams of 1-micron gold was used. Prior to addition of N-hydroxysuccinimide and N-(3-dimethylaminopropyl)-N′-ethylcarbodiimide hydrochloride, the gold was resuspended in 20 mL of a 0.1 M solution of 2-(N-morpholino) ethanesulfonic acid (MES), pH 6.0. DNA-gold micronanoplexes were prepared by combining, per bullet, 57 μL of cysteamine-gold solution with precipitated DNA (≤10 μg) that had been resuspended in ≤15 μL of water, and then vortexing for 10 min. To the DNA-cysteamine-gold was added […] of a freshly made solution of PEI-micron gold (167 mg/mL in 0.1 M MES, pH 6, without NaCl). The pelleted micronanoplexes were washed with ethanol prior to resuspension in n-butanol ([…]), followed by bullet formation under nitrogen gas.
For the three MS FS experiments, all mice (n=10 per group) were genetically immunized in the ear by Gene Gun at 8 weeks of age (2 shots/mouse, 60 ng pooled antigens plus 0.25 μg LTAB and 2.5 μg CpG2216 as the adjuvant for each shot) and boosted twice (two days apart) in three weeks with 1 μg pooled antigens plus the same adjuvants dosage. All mice were boosted again in two weeks with 50 μg KLH conjugated MS FS peptides with 50 μg CpG 2216 and 50 ul alum in total 100 ul PBS. […]

B16-F10 cells = experiment: C57BL/B16-F10 mouse melanoma model: genetic immunization then tumor challenge; assay type: in vivo; conditions: B16F10-C57BL6; gene gun genetic immunization; compared to mock/control antigen CPV 172; n=10 per group
[1] = gene vaccines three times in two week intervals, 2x10^3 4T1 cells subcutaneous, n=4 per group, vs mock

| Sequence | tumor growth (4T1 cells; [1]) | tumor growth (tumor volume) (B16-F10 cells) | tumor growth (4T1 cells; gene gun plus KLH-peptide boost, 5x10^3 4T1 cells, n=10 per group) | T cell dependence of protection (CD8 or CD4 T-cell depletion) (4T1 cells; immunized mice depleted with anti CD8 or anti CD4 antibody) |
| --- | --- | --- | --- | --- |
| IPRMQPQASANHCQLLKVMVA [SLAIN2-FS, mouse mis-splicing FS antigen, skips exon 7] | conferred tumor retardation | – | – | – |
| AVLLMCQLYQPWMCKEYYRLL [ZDHHC17, mouse mis-splicing FS antigen, skips exon 16] | did not | – | – | – |
| TAIIGPNGSGCSGVYCHEEPQGEDSSV [SMC1A 1^4 FS, mouse mis-splicing FS antigen, SMC1A exon 1 joined to exon 4] | – | significant retardation of tumor growth | significantly retarded the 4T1 tumor growth | CD8 T cell dependent |
